Data: patent US20260159525A1, “TRICYCLIC HETEROCYCLES” (Merck Patent GmbH, priority 2021, published 2026)

Tests used:
Type in all cases: cell-based
YAP-TEAD interaction = assay: SK-HEP-1 reporter assay (8x TEAD responsive elements driving NanoLuc luciferase); settings: Homo sapiens, SK-HEP1, SK-HEP-1 cells, 24 hour incubation, group symbols
Outline: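 SK-HEP-1 cells carrying a stably integrated 8× TEAD-element NanoLuc reporter, seeded 24 h before dosing, were treated in duplicate with a 10-point dose series (top 30 μM final, 0.3% DMSO) for 24 h at 37°C, 5% CO2. Luciferase activity read by NanoGlo luminescence; IC50 derived from it.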

NCI-H226 cells = assay: Viability assay in NCI-H226 (Yap-dependent) cells, CyQUANT; settings: Homo sapiens, NCI-H226 YAP dependent cell line, 96 hour incubation, group symbols
Outline: (§1)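 Cells were seeded 24 h before dosing, then given a 10-point, 1:3 compound series from 30 μM final (0.3% DMSO) in duplicate. After 96 h at 37 °C, viability was read by CyQUANT DNA-dye fluorescence.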

SW620 Yap KO cells = assay: Viability assay in SW620 Yap KO (Yap independent) cells, CyQUANT; settings: Homo sapiens, SW-620, SW620 YAP and TAZ knocked out (YAP independent), 96 hour incubation, n.d. (x) = not detectable below threshold x
Outline: as §1

IC50 (YAP-TEAD interaction) [µM] | IC50 (NCI-H226 cells) [µM] | IC50 (SW620 Yap KO cells) [µM] | Compound
0.01 to 0.1 | 0.001 to 0.1 | > 3 | CC[C@H](CO)NC(=O)c1cc2c3cn(C)nc3n(-c3ccc(C(F)(F)F)cc3)c2s1 [Compound 93, N-[(2R)-1-hydroxybutan-2-yl]-4-methyl-7-[4-(trifluoromethyl)phenyl]-9-thia-4,5,7-triazatricyclo[6.3.0.0^2,6]undeca-1(8),2,5,10-tetraene-10-carboxamide]
0.001 to 0.01 | 0.001 to 0.1 | > 30 | Cn1nc2c3cc(C(=O)O)sc3n(-c3ccc(C(F)(F)F)cc3)c2n1 [Compound 95, 4-methyl-7-[4-(trifluoromethyl)phenyl]-9-thia-3,4,5,7-tetraazatricyclo[6.3.0.0^2,6]undeca-1(8),2,5,10-tetraene-10-carboxylic acid]
0.01 to 0.1 | 0.001 to 0.1 | > 30 | Cn1ccc(C(CO)NC(=O)c2cc3c4cn(C)nc4n(-c4ccc(C(F)(F)F)cc4)c3s2)n1 (stereo not drawn) [Compound 96, N-[2-hydroxy-1-(1-methyl-1H-pyrazol-3-yl)ethyl]-4-methyl-7-[4-(trifluoromethyl)phenyl]-9-thia-4,5,7-triazatricyclo[6.3.0.0^2,6]undeca-1(8),2,5,10-tetraene-10-carboxamide]
0.001 to 0.01 | 0.1 to 1 | > 30 | Cn1cc2c3cc(C(=O)NCC(O)CO)sc3n(-c3ccc(C(F)(F)F)cc3)c2n1 (stereo not drawn) [Compound 97, N-(2,3-dihydroxypropyl)-4-methyl-7-[4-(trifluoromethyl)phenyl]-9-thia-4,5,7-triazatricyclo[6.3.0.0^2,6]undeca-1(8),2,5,10-tetraene-10-carboxamide]
0.1 to 10 | 0.1 to 1 | > 30 | Cn1cc2c3cc(C(=O)O)sc3n(-c3ccc(C(F)F)cc3)c2n1 [Compound 99, 7-[4-(difluoromethyl)phenyl]-4-methyl-9-thia-4,5,7-triazatricyclo[6.3.0.0^2,6]undeca-1(8),2,5,10-tetraene-10-carboxylic acid]
0.01 to 0.1 | 0.001 to 0.1 | > 30 | CNC(=O)c1cc2c3cn(C)nc3n(-c3ccc(C(F)F)cc3)c2s1 [Compound 100, 7-[4-(difluoromethyl)phenyl]-N,4-dimethyl-9-thia-4,5,7-triazatricyclo[6.3.0.0^2,6]undeca-1(8),2,5,10-tetraene-10-carboxamide]
0.01 to 0.1 | 0.001 to 0.1 | > 30 | CNC(=O)c1cc2c3nn(C)nc3n(-c3ccc(C(F)(F)F)cc3)c2s1 [Compound 102, N,4-dimethyl-7-[4-(trifluoromethyl)phenyl]-9-thia-3,4,5,7-tetraazatricyclo[6.3.0.0^2,6]undeca-1(8),2,5,10-tetraene-10-carboxamide]
0.01 to 0.1 | 0.1 to 1 | > 30 | Cn1cc2c3cc(C(=O)N4CC[C@H](O)C4)sc3n(-c3ccc(C(F)F)cc3)c2n1 [Compound 105, (3S)-1-{7-[4-(difluoromethyl)phenyl]-4-methyl-9-thia-4,5,7-triazatricyclo[6.3.0.0^2,6]undeca-1(8),2,5,10-tetraene-10-carbonyl}pyrrolidin-3-ol]
0.1 to 10 | 1 to 10 | > 30 | Cn1cc2c3cc(C(=O)O)sc3n(-c3ccc(C(F)F)cn3)c2n1 [Compound 117, 7-[5-(difluoromethyl)pyridin-2-yl]-4-methyl-9-thia-4,5,7-triazatricyclo[6.3.0.0^2,6]undeca-1(8),2,5,10-tetraene-10-carboxylic acid]
0.01 to 0.1 | 0.1 to 1 | > 30 | Cn1cc2c3cc(C(=O)O)sc3n(-c3ccc(OC(F)(F)F)cn3)c2n1 [Compound 118, 4-methyl-7-[5-(trifluoromethoxy)pyridin-2-yl]-9-thia-4,5,7-triazatricyclo[6.3.0.0^2,6]undeca-1(8),2,5,10-tetraene-10-carboxylic acid]
